Key:
[1] = tested on: sympathetic neurons; assay: toxin-induced degeneration of sympathetic neurons, MTT assay; type: cell-based, rat; conditions: 24 hour treatment with the toxin alone
Description: Cortical neurons plated for 3-4 days were treated with 300 nM vincristine, a microtubule destabilizer, for 6-72 hours. NGF withdrawal-induced apoptosis and degeneration were assayed between 4-36 hours after the final treatment. Apoptosis and degeneration were assayed using both the MTT assay and the lactate dehydrogenase assay. The MTT (3-(4,5-dimethylthiazol-2-yl)-2,5-diphenyltetrazolium bromide) assay measures cell viability based on mitochondrial function. MTT was added to a total of one tenth of the culture volume to each well and incubated at 37° C. with 5% CO2 for 90-120 minutes. The MTT-containing culture media was aspirated and the cells were resuspended in an equal volume of solubilization solution (10% triton X-100, 1 drop HCl, 50 mL isopropanol). Absorbance (570 and 690 nm) was read using a spectrophotometer. Lactate dehydrogenase (LDH) levels were assayed using a CytoTox non-radioactive LDH assay kit (Promega) to assess the amount of cell death in assays. Fifty μL of media from different treatment conditions were used according to the manufacturer's instructions. […]
Sympathetic cervical ganglia were dissected from postnatal day 1 Sprague-Dawley rats (Charles River Labs) and collected in a dish containing Ultraculture media (Lonza) with 5% fetal bovine serum (Invitrogen). […] The cell slurry was filtered over a […] cell strainer (Falcon) and cell number was counted. […]

[2] = tested on: DRGs; assay: Campenot chamber local axon degeneration, anti-NGF in axon compartment; type: cell-based, mouse; conditions: inhibitor 5 μM; anti-NGF in axon compartment, 28 hours
Description: Teflon dividers (Tyler Research) were cleaned by washing in water and wiping them clean of any residual grease. Dividers were then soaked in Nochromix (Godax Laboratories)/sulfuric acid overnight, rinsed five times in distilled and autoclaved water (SQ water), boiled for 30 minutes, and then air-dried before use.
Mouse laminin (5 μg/ml in sterile filtered water; Invitrogen) was added to PDL coated 35 mm dishes (BD Biosciences) and they were incubated for 1 hour at 37° C., followed by two rinses in SQ water. The dishes were vacuum-dried and then air-dried in a laminar flow hood for 15 minutes. Prepared dishes were then scored with a pin rake (Tyler Research). […] High vacuum grease (VWR) was added to each Teflon divider under a dissection scope. The laminin coated PDL dishes were inverted and dropped onto the Teflon divider, with additional pressure added by use of a toothpick in the non-track-containing regions. Dishes were incubated for 1 hour at 37° C. Five hundred microliters of NBM+MC (50 ng/ml NGF) solution was added to each of the side compartments, and a grease barrier was added in front of the center cell slot.
Free E13.5 spinal cords were dissected from mouse embryos and placed into NBM+MC (25 ng/ml NGF) solution. DRGs were detached from the spinal cord with a tungsten needle. An NBM+MC-lubricated P200 pipette was used to move DRGs into a 1.5 ml tube. DRGs were pelleted with a tabletop centrifuge for 30 seconds. The supernate was discarded and 0.05% Trypsin/EDTA (cold) was added. The pellet was resolubilized with a pipette and incubated at 37° C. for 15 minutes with constant agitation (650 RPM). The sample was again centrifuged and the supernate discarded. The pellet was resuspended in warm NBM+MC (50 ng/ml NGF) solution and triturated with a flamed glass pipette 20 times, followed by trituration with a fire-bored glass pipette another 20 times. The samples were again centrifuged and the resulting pellets were resuspended in 0.5 ml NBM+MC (50 ng/ml NGF) solution. The cells were diluted to a final concentration of 2.5×10^6 cells/ml. The cell suspensions were loaded into a 1 ml syringe with a 22 gauge needle. The center slot of the Campenot divider was filled using the syringe (to a volume of at least 50 μl). The Campenot chamber was incubated overnight at 37° C. 2.5 ml NGF+MC (50 ng/ml NGF) solution was added to the center compartment and the grease gate was removed. The outer medium (cell body compartment) was replaced after three days with 2.5 ml NBM+MC medium (with 25 ng/ml NGF). After five days in culture, one distal compartment was washed three times with warmed NBM+MC (no NGF) solution. After the third wash, 500 μl NBM+MC (no NGF) solution was added to the axon compartment in combination with either 0.5% DMSO or an inhibitor. The cell body compartment was replaced with 2.5 ml NBM+MC medium (with 25 ng/ml NGF) containing either 0.5% DMSO or inhibitor.
After 28 hours of anti-NGF antibody treatment, 8% PFA/30% sucrose solution (see above) was added directly to the culture medium at a 1:1 dilution and incubated for 30 minutes. The Teflon divider was removed after the first 15 minutes of addition. The system was washed once with 2.5 ml PBS prior to immunostaining. Neurons were blocked in 5% BSA/0.2% triton in PBS for 30 minutes. The primary antibody Tuj1 (Covance) was added to a final dilution of 1:1000 in PBS containing 2% BSA and incubated overnight at 4° C. The dish was washed once with PBS. […] The dish was washed twice with PBS, and a 22×22 mm coverslip (VWR) was added with 350 μl of fluoromount G (Electron Microscopy Sciences). The neurons were visualized by use of a fluorescence microscope.
As described above, E13.5 DRGs were isolated and grown for 5 days in a Campenot chamber.

[3] = tested on: heregulin induced tyrosine phosphorylation in MDA-MB-453 cells; conditions: published source (footnote b), read-out: Cellular IC50; cited from earlier work
[4] = tested on: protein tyrosine phosphorylation in 3T3-Her2 cells; conditions: published source (footnote c), read-out: Cellular IC50; cited from earlier work

SMILES	% viability (normalized) [1]	Axon Compartment (axon protected when inhibitor is in axon compartment) [2]	Cell Body Compartment (axon protected when inhibitor is in cell body compartment) [2]	IC50 [3]	IC50 [4]
CC[C@@]1(O)C(=O)OCc2c1cc1n(c2=O)Cc2cc3ccccc3nc2-1 [camptothecin]	79%				
C=CC(=O)Nc1ccc2ncnc(Nc3cccc(Br)c3)c2c1 [PD168393]		Yes (1)	No (1)	0.005 µM	100 µM

From patent US20160279190A1, “MODULATION OF AXON DEGENERATION” (GENENTECH, INC., priority 2008, published 2016)
